Assay results as given in patent US20010032339A1, “Chaperone suppression of ataxin-1 aggregation and altered subcellular proteasome localization imply protein misfolding in SCA1” (priority 1998, published 2001).

Columns and labels:
Assay type in all cases: cell-based, human
[1] = system: GFP-ataxin-1 [82Q] nuclear aggregates in HeLa cells; test: Effect of proteasome inhibitors on aggregation of GFP-ataxin-1 [82Q] in transfected HeLa cells; details: HeLa cells transfected with GFP-ataxin-1 [82Q]
Excerpt: Full length mutant ataxin-1 [82Q] readily aggregates in subnuclear structures when overexpressed in tissue culture cells and these aggregates alter the staining pattern of the 20S proteasome. […] The effect of proteasome inhibitors on the aggregation of GFP-ataxin-1 [82Q] in transfected HeLa cells was examined. The protease inhibitor clasto-Lactacystin β-lactone specifically prevents protein breakdown by the proteasome, without inhibiting lysosomal degradation. […] In contrast to the 71% of mock treated cells which had nuclear aggregates, 97% of the proteasome inhibitor treated cells were aggregate positive (FIGS. 7A through 7D). […] Therefore, proteasome inhibitor treatment led to an increase in both frequency and size of nuclear aggregates. This enhancement is most likely due to the increased nuclear concentration of misfolded proteins which are not being properly degraded.

[2] = system: ataxin-1 [92Q] in HeLa cells; test: Immunoblot of steady-state levels of ataxin-1 in detergent soluble and insoluble fractions; details: HeLa cells expressing ataxin-1 [92Q], versus DMSO control
Description: The effect of β-lactone on the steady-state levels of ataxin-1 was assessed by immunoblot analysis (FIGS. 8A through 8D). HeLa cells expressing mutant ataxin-1 [92Q] were treated with either different concentrations of β-lactone or DMSO (dimethyl sulfoxide) control. Cells lysates were separated into detergent soluble and insoluble fractions and then immunoblotted with ataxin-1 antibody. […] Increasing the protein concentration per lane and extending the exposure time, a high molecular weight smear punctated by discrete bands is evident. […] Additionally, the higher molecular weight smear was never seen in the detergent soluble fraction.

[3] = system: ataxin-1 [92Q] nuclear aggregates in HeLa cells; test: Ataxin-1 aggregate formation in HeLa cells cotransfected with ataxin-1 [92Q] and HDJ-2/HSDJ constructs
Excerpt: Full-length human HDJ-2/HSDJ and HDJ-2/HSDJ mutants Δ250 (deletion of aa 9-46) and Δ450 (deletion of aa9-107)^32 were subcloned in frame into the pFLAG-CMV-2vector (Kodak). The primers HDJ2-FOR (5′-[…]-3′) and HDJ2-REV (5′-[…]-3′) were used to PCR amplify the 5′ end of HDJ-2/HSDJ containing an inframe Not I site. The PCR product was cut with Notl and EcoRl and subcloned into pFLAG-CMV-2. This construct was digested with EcoRl and Xbal to insert the 3′ HDJ-2/HSDJ EcoRl/Xbal sequence. The constructs were confirmed by DNA sequence analysis.
Transient expression of ataxin-1 and HDJ-2/HSDJ in COS7 and HeLa cells was accomplished by transfection with Lipofectamine™ Reagent (Life technologies, Inc.) in 35 mm tissue culture plates containing sterile coverslips. Forty-eight hours after transfection, cells were fixed at 4° C. for 30 min in 4% formaldehyde in PEM (80 mM K-PIPES, pH 6.8, 5 mM EGTA pH 7.0, 2 mM MgCl2), quenched in 1 mg/ml NaBH4 in PEM, and permeabilized for 30 min in 0.5% Triton X-100 in PEM. The coverslips were blocked for 1 hour at room temperature (RT) in 5% non-fat dry milk (Bio-Rad) in 50 mM Tris-HCl pH 7.5, 150 mM NaCl, 0.05% Tween20 (TBS-T), then incubated for 60 min at RT with rabbit polyclonal antibodies (1:1000) recognizing ataxin-1 (11750VII)^44. […] Hsp70 was detected with mouse monoclonal anti-Hsp70 (1:500) (StressGen). Endogenous HDJ-2/HSDJ was detected with mouse monoclonal anti-HDJ-2/DNAJ (1:200) (Neomarkers). The 20S proteasome was visualized with rabbit polyclonal anti-20S proteasome^43 (1:500) and ataxin-1 colocalization was detected using mouse monoclonal anti-Xpress (1:1000) recognizing the Xpress epitope in pcDNA 3.1 (Invitrogen). […]
Duplicate slides were graded blindly in two independent trials. […] Frequency of aggregate formation was computed for two independent experiments and expressed as the mean±s.e.m. […]
The ability of HDJ-2/HSDJ to function as a molecular chaperone and moderate ataxin-1 aggregation in HeLa cells was tested. […] HDJ-2/HSDJ was overexpressed by transfection in HeLa cells and the cells analyzed for the staining pattern of ataxin-1. […]

Compound | distribution of cells containing large aggregates compared to controls [1] | percentage of cells aggregate positive ([1]; mock treated 71%) | steady-state level of detergent soluble form of ataxin-1 [2] | steady-state level of detergent-insoluble form of ataxin-1 [2] | change in frequency of ataxin-1 aggregation versus vector control ([3]; HeLa cells cotransfected with ataxin-1, ANOVA F=24.5, p=0.0002) | distribution of ataxin-1 staining pattern (diffuse/micropunctate versus large aggregates) ([3]; HeLa cells cotransfected with ataxin-1, ANOVA F=36.4, p<0.001) | percentage of cells with nuclear aggregates (aggregate-positive) ([3]; HeLa cells cotransfected with ataxin-1 [92Q], vector control approximately 70%)
CC(C)[C@H](O)[C@@]12NC(=O)[C@H](C)[C@@H]1OC2=O [β-lactone, clasto-Lactacystin β-lactone] | dramatically increased | 97% | unchanged | marked accumulation | – | – | –
HDJ-2/HSDJ: full-length human DnaJ (Hsp40) homolog molecular chaperone, overexpressed by transfection (pFLAG-CMV-2) | – | – | – | – | significant decrease | more cells have diffuse/micropunctate nuclear staining pattern, than large nuclear aggregates | less than 40%
